Measurements as given in the OligoGym collection.
HELM strings list units from the 5' end as sugar, base in round brackets, then linkage (d deoxyribose, r ribose, m 2'-O-methyl, p phosphodiester). Strings are as the collection lists them; they lack the last nucleoside at the 3' end of the tested compound. [moe] = 2'-O-(2-methoxyethyl) (MOE); [sp] = phosphorothioate linkage; [m5C] = 5-methylcytosine

Molecular target: SMN2
Assay: mouse, dose not given
Conditions: ASO

Substance	3 h FOB score [score 0-7]
RNA1{[moe]([m5C])[sp].[moe](A)[sp].[moe]([m5C])p.[moe](T)p.[moe](T)p.[moe](T)p.[moe]([m5C])[sp].[moe](A)[sp].[moe](T)[sp].[moe](A)[sp].[moe](A)[sp].[moe](T)[sp].[moe](G)[sp].[moe]([m5C])[sp].[moe](T)[sp].[moe](G)[sp].[moe](G)}$$$$ (last 3' nucleoside missing)	0
RNA1{[moe]([m5C])[sp].[moe](A)p.[moe]([m5C])[sp].[moe](T)[sp].[moe](T)[sp].[moe](T)[sp].[moe]([m5C])[sp].[moe](A)[sp].[moe](T)[sp].[moe](A)[sp].[moe](A)[sp].[moe](T)[sp].[moe](G)[sp].[moe]([m5C])[sp].[moe](T)p.[moe](G)[sp].[moe](G)}$$$$ (last 3' nucleoside missing)	0
RNA1{[moe]([m5C])[sp].[moe](A)p.[moe]([m5C])[sp].[moe](T)[sp].[moe](T)[sp].[moe](T)[sp].[moe]([m5C])[sp].[moe](A)[sp].[moe](T)[sp].[moe](A)[sp].[moe](A)[sp].[moe](T)p.[moe](G)[sp].[moe]([m5C])[sp].[moe](T)[sp].[moe](G)[sp].[moe](G)}$$$$ (last 3' nucleoside missing)	0
RNA1{[moe]([m5C])[sp].[moe](A)p.[moe]([m5C])[sp].[moe](T)[sp].[moe](T)[sp].[moe](T)[sp].[moe]([m5C])[sp].[moe](A)[sp].[moe](T)[sp].[moe](A)p.[moe](A)[sp].[moe](T)[sp].[moe](G)[sp].[moe]([m5C])[sp].[moe](T)[sp].[moe](G)[sp].[moe](G)}$$$$ (last 3' nucleoside missing)	0
RNA1{[moe]([m5C])[sp].[moe](A)p.[moe]([m5C])[sp].[moe](T)[sp].[moe](T)[sp].[moe](T)[sp].[moe]([m5C])[sp].[moe](A)p.[moe](T)[sp].[moe](A)[sp].[moe](A)[sp].[moe](T)[sp].[moe](G)[sp].[moe]([m5C])[sp].[moe](T)[sp].[moe](G)[sp].[moe](G)}$$$$ (last 3' nucleoside missing)	1
RNA1{[moe]([m5C])[sp].[moe](A)p.[moe]([m5C])[sp].[moe](T)[sp].[moe](T)[sp].[moe](T)p.[moe]([m5C])[sp].[moe](A)[sp].[moe](T)[sp].[moe](A)[sp].[moe](A)[sp].[moe](T)[sp].[moe](G)[sp].[moe]([m5C])[sp].[moe](T)[sp].[moe](G)[sp].[moe](G)}$$$$ (last 3' nucleoside missing)	0
RNA1{[moe]([m5C])[sp].[moe](A)p.[moe]([m5C])[sp].[moe](T)p.[moe](T)[sp].[moe](T)[sp].[moe]([m5C])[sp].[moe](A)[sp].[moe](T)[sp].[moe](A)[sp].[moe](A)[sp].[moe](T)[sp].[moe](G)[sp].[moe]([m5C])[sp].[moe](T)[sp].[moe](G)[sp].[moe](G)}$$$$ (last 3' nucleoside missing)	0
RNA1{[moe]([m5C])[sp].[moe](A)p.[moe]([m5C])p.[moe](T)[sp].[moe](T)[sp].[moe](T)[sp].[moe]([m5C])[sp].[moe](A)[sp].[moe](T)[sp].[moe](A)[sp].[moe](A)[sp].[moe](T)[sp].[moe](G)[sp].[moe]([m5C])[sp].[moe](T)[sp].[moe](G)[sp].[moe](G)}$$$$ (last 3' nucleoside missing)	0
RNA1{[moe]([m5C])[sp].[moe](A)p.[moe]([m5C])p.[moe](T)[sp].[moe](T)[sp].[moe](T)[sp].[moe]([m5C])[sp].[moe](A)[sp].[moe](T)[sp].[moe](A)[sp].[moe](A)[sp].[moe](T)[sp].[moe](G)[sp].[moe]([m5C])p.[moe](T)p.[moe](G)[sp].[moe](G)}$$$$ (last 3' nucleoside missing)	0
RNA1{[moe]([m5C])[sp].[moe](A)p.[moe]([m5C])p.[moe](T)p.[moe](T)[sp].[moe](T)[sp].[moe]([m5C])[sp].[moe](A)[sp].[moe](T)[sp].[moe](A)[sp].[moe](A)[sp].[moe](T)[sp].[moe](G)[sp].[moe]([m5C])p.[moe](T)p.[moe](G)[sp].[moe](G)}$$$$ (last 3' nucleoside missing)	0
RNA1{[moe]([m5C])[sp].[moe](A)p.[moe]([m5C])p.[moe](T)p.[moe](T)[sp].[moe](T)[sp].[moe]([m5C])[sp].[moe](A)[sp].[moe](T)[sp].[moe](A)[sp].[moe](A)[sp].[moe](T)[sp].[moe](G)p.[moe]([m5C])p.[moe](T)p.[moe](G)[sp].[moe](G)}$$$$ (last 3' nucleoside missing)	0
RNA1{[moe]([m5C])[sp].[moe](A)p.[moe]([m5C])p.[moe](T)p.[moe](T)p.[moe](T)[sp].[moe]([m5C])[sp].[moe](A)[sp].[moe](T)[sp].[moe](A)[sp].[moe](A)[sp].[moe](T)[sp].[moe](G)p.[moe]([m5C])p.[moe](T)p.[moe](G)[sp].[moe](G)}$$$$ (last 3' nucleoside missing)	0
RNA1{[moe]([m5C])[sp].[moe](T)[sp].[moe](T)[sp].[moe](T)[sp].[moe]([m5C])[sp].[moe](A)[sp].[moe](T)[sp].[moe](A)[sp].[moe](A)[sp].[moe](T)[sp].[moe](G)[sp].[moe]([m5C])[sp].[moe](T)[sp].[moe](G)[sp].[moe](G)}$$$$ (last 3' nucleoside missing)	2.88
RNA1{[moe]([m5C])[sp].[moe](T)[sp].[moe](T)[sp].[moe](T)[sp].[moe]([m5C])[sp].[moe](A)[sp].[moe](T)[sp].[moe](A)[sp].[moe](A)[sp].[moe](T)p.[moe](G)p.[moe]([m5C])p.[moe](T)p.[moe](G)[sp].[moe](G)}$$$$ (last 3' nucleoside missing)	0
RNA1{[moe]([m5C])[sp].[moe](T)[sp].[moe](T)[sp].[moe](T)[sp].[moe]([m5C])[sp].[moe](A)[sp].[moe](T)[sp].[moe](A)[sp].[moe](A)p.[moe](T)p.[moe](G)p.[moe]([m5C])p.[moe](T)[sp].[moe](G)[sp].[moe](G)}$$$$ (last 3' nucleoside missing)	0
RNA1{[moe]([m5C])[sp].[moe](T)[sp].[moe](T)[sp].[moe](T)[sp].[moe]([m5C])[sp].[moe](A)[sp].[moe](T)p.[moe](A)p.[moe](A)p.[moe](T)[sp].[moe](G)[sp].[moe]([m5C])[sp].[moe](T)[sp].[moe](G)[sp].[moe](G)}$$$$ (last 3' nucleoside missing)	2
RNA1{[moe]([m5C])[sp].[moe](T)[sp].[moe](T)[sp].[moe](T)[sp].[moe]([m5C])[sp].[moe](A)[sp].[moe](T)p.[moe](A)p.[moe](A)p.[moe](T)p.[moe](G)[sp].[moe]([m5C])[sp].[moe](T)[sp].[moe](G)[sp].[moe](G)}$$$$ (last 3' nucleoside missing)	0.75
RNA1{[moe]([m5C])[sp].[moe](T)[sp].[moe](T)[sp].[moe](T)[sp].[moe]([m5C])[sp].[moe](A)p.[moe](T)p.[moe](A)p.[moe](A)p.[moe](T)p.[moe](G)[sp].[moe]([m5C])[sp].[moe](T)[sp].[moe](G)[sp].[moe](G)}$$$$ (last 3' nucleoside missing)	1
RNA1{[moe]([m5C])[sp].[moe](T)[sp].[moe](T)[sp].[moe](T)[sp].[moe]([m5C])[sp].[moe](A)p.[moe](T)p.[moe](A)p.[moe](A)p.[moe](T)p.[moe](G)p.[moe]([m5C])[sp].[moe](T)[sp].[moe](G)[sp].[moe](G)}$$$$ (last 3' nucleoside missing)	0.75
RNA1{[moe]([m5C])[sp].[moe](T)[sp].[moe](T)[sp].[moe](T)[sp].[moe]([m5C])p.[moe](A)p.[moe](T)p.[moe](A)p.[moe](A)[sp].[moe](T)[sp].[moe](G)[sp].[moe]([m5C])[sp].[moe](T)[sp].[moe](G)[sp].[moe](G)}$$$$ (last 3' nucleoside missing)	1
RNA1{[moe]([m5C])[sp].[moe](T)[sp].[moe](T)[sp].[moe](T)[sp].[moe]([m5C])p.[moe](A)p.[moe](T)p.[moe](A)p.[moe](A)p.[moe](T)p.[moe](G)p.[moe]([m5C])[sp].[moe](T)[sp].[moe](G)[sp].[moe](G)}$$$$ (last 3' nucleoside missing)	0
RNA1{[moe]([m5C])[sp].[moe](T)[sp].[moe](T)[sp].[moe](T)p.[moe]([m5C])[sp].[moe](A)[sp].[moe](T)[sp].[moe](A)p.[moe](A)[sp].[moe](T)[sp].[moe](G)[sp].[moe]([m5C])p.[moe](T)[sp].[moe](G)[sp].[moe](G)}$$$$ (last 3' nucleoside missing)	0.75
RNA1{[moe]([m5C])[sp].[moe](T)[sp].[moe](T)p.[moe](T)[sp].[moe]([m5C])[sp].[moe](A)[sp].[moe](T)[sp].[moe](A)[sp].[moe](A)[sp].[moe](T)[sp].[moe](G)[sp].[moe]([m5C])[sp].[moe](T)p.[moe](G)[sp].[moe](G)}$$$$ (last 3' nucleoside missing)	0.5
RNA1{[moe]([m5C])[sp].[moe](T)[sp].[moe](T)p.[moe](T)[sp].[moe]([m5C])[sp].[moe](A)p.[moe](T)[sp].[moe](A)[sp].[moe](A)p.[moe](T)[sp].[moe](G)[sp].[moe]([m5C])p.[moe](T)[sp].[moe](G)[sp].[moe](G)}$$$$ (last 3' nucleoside missing)	0
RNA1{[moe]([m5C])[sp].[moe](T)[sp].[moe](T)p.[moe](T)[sp].[moe]([m5C])[sp].[moe](A)p.[moe](T)[sp].[moe](A)[sp].[moe](A)p.[moe](T)[sp].[moe](G)p.[moe]([m5C])[sp].[moe](T)p.[moe](G)[sp].[moe](G)}$$$$ (last 3' nucleoside missing)	0
RNA1{[moe]([m5C])[sp].[moe](T)[sp].[moe](T)p.[moe](T)[sp].[moe]([m5C])p.[moe](A)[sp].[moe](T)p.[moe](A)[sp].[moe](A)p.[moe](T)[sp].[moe](G)p.[moe]([m5C])[sp].[moe](T)p.[moe](G)[sp].[moe](G)}$$$$ (last 3' nucleoside missing)	0.25
